Experimental data: the SangsterLogP compilation

How the values were obtained:
[1] = method code SF-AS, from DOI: 10.1021/jm00213a023, PMID: 321779
[2] = method code SF-C, from DOI: 10.1021/jm00213a023, PMID: 321779
[3] = method code SF, from DOI: 10.1021/jm00213a023, PMID: 321779

logP [1] | SMILES | further results
3.37 | CCCCCCCOc1cc(N)ccc1C(=O)O | 
3.77 | CCCCCCCCOc1cc(N)ccc1C(=O)O | 
1.29 | Nc1ccc(C(=O)O)c(F)c1 | 
1.65 | Nc1ccc(C(=O)O)c(I)c1 | 
2.3 | CC(C)CCOc1cc(N)ccc1C(=O)O | 
1.24 | CCCCOc1cc(N)ccc1C(=O)O | 
2.35 | Nc1ccc(C(=O)O)cc1Cl | 
0.13 | Nc1ccc(C(=O)O)cc1N | 
2.36 | Nc1ccc(C(=O)O)cc1I | 
1.25 | C=CCOc1cc(N)ccc1C(=O)O | 
 | Cc1cc(N)ccc1C(=O)O | logP [2]: 1.14
2.38 | CCCCCOc1cc(N)ccc1C(=O)O | 
 | CCOc1cc(N)ccc1C(=O)O | logP [3]: 0.99
2.23 | Nc1ccc(C(=O)O)cc1Br | 
1.33 | Nc1ccc(C(=O)O)c(Cl)c1 | 
-0.31 | Nc1ccc(C(=O)O)c(N)c1 | 
1.21 | Nc1ccc(C(=O)O)c([N+](=O)[O-])c1 | 
 | Nc1ccc(C(=O)O)cc1N1C(=O)CSC1=S | logP [3]: 1.66
1.41 | Nc1ccc(C(=O)O)cc1F | 
1.49 | Nc1ccc(C(=O)O)c(Br)c1 | 
0.5 | Nc1ccc(C(=O)O)cc1O | 
0.45 | COc1cc(N)ccc1C(=O)O | 
